Reference: ChEMBL document CHEMBL5500376, “Novel pyxinol amide derivatives bearing an aliphatic heterocycle as P-glycoprotein modulators for overcoming multidrug resistance” (Eur J Med Chem, 2024)
Structures can show the parent of a compound that is named as a salt. Activity calls are given as the source filed them. The calls are words filed in the database; no cut-off is given here.

What was measured:
[1] = Cytotoxicity against HUVEC cells assessed as cell survival measured after 72 hrs incubation by MTT assay; format: toxicity, cell-based; conditions: human
[2] = Reversal fold, ratio of PTX IC50 to PTX IC50 in presence of test compound for reversal of multi-drug resistance in human KVB cells at 10 uM measured after 72 hrs by MTT assay; format: functional, KBV
KBV [3] = assay: Potentiation of PTX-mediated antimigratory activity against human KVB cells assessed as inhibition of cell migration at 2.5 to 10 uM and incubated for 24 hrs in presence of 50 nM by scratch wound healing assay; format: functional, cell-based; conditions: dose 2.5-10 µM
KBV [4] = assay: Potentiation of PTX-mediated inhibition of colony formation of human KVB cells assessed as reduction in colonies measured after 48 hrs by crystal violet staining based analysis; format: functional, cell-based; conditions: dose […] µM
[5] = Reversal fold, ratio of 5-fluorouracil IC50 to 5-fluorouracil IC50 in presence of test compound for reversal of multi-drug resistance in human KVB cells at 5 uM measured after 72 hrs by MTT assay; format: functional, KBV
[6] = Cytotoxicity against human HK-2 cells assessed as cell survival measured after 72 hrs incubation by MTT assay; format: toxicity, cell-based
[7] = target: T1, ATP-dependent translocase ABCB1 (Homo sapiens, UniProt P08183); assay: Substrate activity at Pgp in human KVB cells assessed as intracellular accumulation measured after 4 hrs by LC-MS/MS analysis; format: cell-based; conditions: kbv
T1 sequence (P08183 whole entry): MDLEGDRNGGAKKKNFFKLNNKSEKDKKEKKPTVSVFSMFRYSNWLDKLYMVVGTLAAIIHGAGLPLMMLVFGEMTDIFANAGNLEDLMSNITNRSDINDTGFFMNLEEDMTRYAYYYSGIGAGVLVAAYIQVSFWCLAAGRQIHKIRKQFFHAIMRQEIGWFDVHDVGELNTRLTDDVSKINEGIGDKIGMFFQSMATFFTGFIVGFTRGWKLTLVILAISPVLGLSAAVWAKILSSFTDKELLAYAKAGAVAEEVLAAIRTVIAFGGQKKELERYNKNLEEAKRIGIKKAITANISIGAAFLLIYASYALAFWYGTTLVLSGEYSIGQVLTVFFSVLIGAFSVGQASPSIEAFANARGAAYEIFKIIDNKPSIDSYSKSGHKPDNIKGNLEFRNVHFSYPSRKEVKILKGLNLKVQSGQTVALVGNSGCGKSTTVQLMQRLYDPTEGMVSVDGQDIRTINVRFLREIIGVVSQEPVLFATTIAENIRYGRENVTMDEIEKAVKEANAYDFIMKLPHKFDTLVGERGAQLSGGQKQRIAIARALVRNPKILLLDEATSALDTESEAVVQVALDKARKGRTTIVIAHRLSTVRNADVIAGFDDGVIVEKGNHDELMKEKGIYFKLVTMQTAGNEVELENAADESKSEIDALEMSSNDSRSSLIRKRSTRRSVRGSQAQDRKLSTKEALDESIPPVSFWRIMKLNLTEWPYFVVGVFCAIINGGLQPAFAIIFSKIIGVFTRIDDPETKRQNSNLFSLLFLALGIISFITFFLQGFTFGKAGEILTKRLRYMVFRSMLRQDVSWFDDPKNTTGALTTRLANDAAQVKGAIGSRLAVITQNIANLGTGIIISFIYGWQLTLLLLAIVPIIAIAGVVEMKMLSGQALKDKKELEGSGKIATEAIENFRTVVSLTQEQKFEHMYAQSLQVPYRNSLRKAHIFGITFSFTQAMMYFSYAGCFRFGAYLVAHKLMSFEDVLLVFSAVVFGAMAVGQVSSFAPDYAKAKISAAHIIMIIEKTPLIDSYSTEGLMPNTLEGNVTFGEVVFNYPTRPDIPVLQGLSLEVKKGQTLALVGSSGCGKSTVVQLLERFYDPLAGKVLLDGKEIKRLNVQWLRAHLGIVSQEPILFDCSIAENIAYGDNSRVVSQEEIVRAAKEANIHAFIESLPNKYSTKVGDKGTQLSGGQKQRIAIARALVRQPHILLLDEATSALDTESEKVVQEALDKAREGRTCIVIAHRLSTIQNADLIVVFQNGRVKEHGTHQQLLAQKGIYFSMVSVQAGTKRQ

[8] = Reversal fold, ratio of 5-fluorouracil IC50 to 5-fluorouracil IC50 in presence of test compound for reversal of multi-drug resistance in human KVB cells at 10 uM measured after 72 hrs by MTT assay; format: functional, KBV
[9] = Reversal fold, ratio of cisplatin IC50 to cisplatin IC50 in presence of test compound for reversal of multi-drug resistance in human KVB cells at 5 uM measured after 72 hrs by MTT assay; format: functional, KBV
[10] = Cytotoxicity against human KBV cells assessed as cell survival at 10 uM measured after 72 hrs incubation by MTT assay relative to control; format: functional; conditions: read-out: Activity
[11] = target: T2, Broad substrate specificity ATP-binding cassette transporter ABCG2 (Homo sapiens, UniProt Q9UNQ0); assay: Thermal stabilization of ABCG2 in human KVB cells by CETSA assay; format: cell-based; conditions: kbv
T2 sequence (Q9UNQ0 whole entry): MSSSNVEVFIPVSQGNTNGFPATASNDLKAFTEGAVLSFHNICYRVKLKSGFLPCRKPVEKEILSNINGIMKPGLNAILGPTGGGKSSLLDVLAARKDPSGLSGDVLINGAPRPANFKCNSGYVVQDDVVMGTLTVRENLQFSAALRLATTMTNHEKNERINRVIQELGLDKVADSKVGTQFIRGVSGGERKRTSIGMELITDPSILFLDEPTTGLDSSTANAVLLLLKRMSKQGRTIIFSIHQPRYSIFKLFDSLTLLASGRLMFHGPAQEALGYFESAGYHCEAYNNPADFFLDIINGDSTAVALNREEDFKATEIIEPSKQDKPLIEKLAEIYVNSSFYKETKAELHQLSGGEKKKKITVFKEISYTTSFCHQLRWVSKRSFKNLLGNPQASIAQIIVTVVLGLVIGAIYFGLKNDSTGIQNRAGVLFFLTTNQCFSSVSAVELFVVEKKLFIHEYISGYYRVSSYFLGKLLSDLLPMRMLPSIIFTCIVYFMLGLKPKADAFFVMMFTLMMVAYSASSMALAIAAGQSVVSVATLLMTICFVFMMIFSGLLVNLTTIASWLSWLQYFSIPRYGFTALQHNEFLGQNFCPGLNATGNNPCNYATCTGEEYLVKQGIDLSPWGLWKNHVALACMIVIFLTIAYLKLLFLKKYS

[12] = target: Multidrug resistance-associated protein 1 (Homo sapiens, UniProt P33527); assay: Thermal stabilization of ABCC1 in human KVB cells by CETSA assay; format: cell-based; conditions: kbv
Sequence of Multidrug resistance-associated protein 1 (P33527 whole entry): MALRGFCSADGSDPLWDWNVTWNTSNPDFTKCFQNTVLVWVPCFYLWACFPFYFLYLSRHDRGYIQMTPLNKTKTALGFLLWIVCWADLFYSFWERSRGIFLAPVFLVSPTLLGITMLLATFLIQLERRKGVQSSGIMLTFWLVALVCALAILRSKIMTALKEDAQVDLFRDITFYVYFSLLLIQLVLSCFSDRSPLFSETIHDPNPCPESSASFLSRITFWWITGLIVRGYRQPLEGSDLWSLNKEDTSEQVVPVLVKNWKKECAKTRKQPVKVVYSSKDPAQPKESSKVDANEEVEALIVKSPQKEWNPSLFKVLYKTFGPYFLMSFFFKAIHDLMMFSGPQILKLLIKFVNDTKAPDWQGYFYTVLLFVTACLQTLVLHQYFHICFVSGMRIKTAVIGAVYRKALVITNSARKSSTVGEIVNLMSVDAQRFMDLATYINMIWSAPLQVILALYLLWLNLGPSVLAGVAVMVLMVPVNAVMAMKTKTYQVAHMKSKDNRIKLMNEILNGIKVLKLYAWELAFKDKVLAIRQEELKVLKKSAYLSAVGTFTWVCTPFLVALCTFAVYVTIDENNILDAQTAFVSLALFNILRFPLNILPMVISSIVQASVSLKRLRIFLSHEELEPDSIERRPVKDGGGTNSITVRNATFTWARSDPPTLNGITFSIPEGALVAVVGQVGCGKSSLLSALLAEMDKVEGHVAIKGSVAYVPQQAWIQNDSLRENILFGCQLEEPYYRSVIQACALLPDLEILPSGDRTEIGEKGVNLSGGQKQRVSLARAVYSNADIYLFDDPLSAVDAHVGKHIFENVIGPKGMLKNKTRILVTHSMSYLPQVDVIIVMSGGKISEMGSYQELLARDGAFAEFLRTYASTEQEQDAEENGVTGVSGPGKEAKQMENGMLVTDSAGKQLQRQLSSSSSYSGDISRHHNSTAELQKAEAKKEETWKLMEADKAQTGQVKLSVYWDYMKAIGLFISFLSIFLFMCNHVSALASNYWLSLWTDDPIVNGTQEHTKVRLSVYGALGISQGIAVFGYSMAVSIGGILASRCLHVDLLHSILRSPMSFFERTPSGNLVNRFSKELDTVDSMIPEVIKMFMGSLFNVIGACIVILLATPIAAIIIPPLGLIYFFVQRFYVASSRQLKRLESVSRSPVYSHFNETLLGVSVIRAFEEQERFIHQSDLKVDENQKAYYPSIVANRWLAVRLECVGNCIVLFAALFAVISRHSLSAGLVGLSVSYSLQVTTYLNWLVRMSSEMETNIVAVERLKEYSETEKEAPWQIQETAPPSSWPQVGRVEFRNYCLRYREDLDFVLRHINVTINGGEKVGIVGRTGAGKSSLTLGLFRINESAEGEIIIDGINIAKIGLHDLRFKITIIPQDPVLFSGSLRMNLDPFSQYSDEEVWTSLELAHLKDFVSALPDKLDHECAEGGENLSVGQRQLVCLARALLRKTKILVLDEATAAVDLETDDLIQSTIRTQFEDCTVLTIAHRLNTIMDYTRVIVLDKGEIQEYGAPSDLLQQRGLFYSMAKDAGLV

[13] = Cytotoxicity against human KBV cells assessed as cell survival measured after 72 hrs incubation by MTT assay; format: functional, cell-based
[14] = target: T1, ATP-dependent translocase ABCB1; assay: Inhibition of P-gp-mediated rhodamine-123 efflux in human KVB cells assessed as increase in intracellular Rhodamine-123 accumulation incubated for 30 mins by flow cytometry; format: cell-based; conditions: kbv, 0.5 h, at 2.5 to 10 µM, dose 2.5-10 µM
[15] = Reversal fold, ratio of cisplatin IC50 to cisplatin IC50 in presence of test compound for reversal of multi-drug resistance in human KVB cells at 10 uM measured after 72 hrs by MTT assay; format: functional, KBV
KBV [16] = assay: Effect on P-gp sub-cellular localization in human KVB cells at 10 uM measured for 48 hrs incubation by immunofluorescence assay; format: functional, cell-based
[17] = target: T1, ATP-dependent translocase ABCB1; assay: Inhibition of P-gp-mediated Ptx-C efflux in human KVB cells assessed as increase in fluorescence intensity incubated for 3 hrs by confocal microscopic analysis; format: cell-based; conditions: kbv, at 2.5 to 10 µM, dose 2.5-10 µM
[18] = Reversal of multi-drug resistance in human KVB cells assessed as increase in PTX-induced cytotoxicity by measuring cell survival at 10 uM measured after 72 hrs incubation in presence of 100 nM paclitaxel by MTT assay relative to control; format: functional, KBV
[19] = Reversal fold, ratio of ADR IC50 to ADR IC50 in presence of test compound for reversal of multi-drug resistance in human KVB cells at 10 uM measured after 72 hrs by MTT; format: functional, KBV
[20] = Reversal of multi-drug resistance in human KVB cells assessed as increase in PTX-induced cytotoxicity by measuring cell survival at 5 uM measured after 72 hrs incubation in presence of 100 nM paclitaxel by MTT assay relative to control; format: functional, KBV
KBV [21] = assay: Reduction in P-gp protein level in human KVB cells at 10 uM measured upto 96 hrs incubation by Western blot analysis; format: functional, cell-based
[22] = target: T1, ATP-dependent translocase ABCB1; assay: Thermal stabilization of P-gp in human KVB cells at 58 to 61 degreeC by CETSA assay; format: cell-based; conditions: kbv
[23] = Reversal fold, ratio of ADR IC50 to ADR IC50 in presence of test compound for reversal of multi-drug resistance in human KVB cells at 5 uM measured after 72 hrs by MTT; format: functional, KBV
KBV [24] = assay: Antimigratory activity against human KVB cells assessed as inhibition of cell migration at 50 nM and incubated for 24 hrs by scratch wound healing assay; format: functional, cell-based
KBV [25] = assay: Inhibition of colony formation of human KVB cells assessed as reduction in colonies at 2.5 uM measured after 48 hrs by crystal violet staining based analysis; format: functional, cell-based
[26] = Reversal fold, ratio of cisplatin IC50 to cisplatin IC50 in presence of test compound for reversal of multi-drug resistance in human KVB cells at 25 uM measured after 72 hrs by MTT assay; format: functional, KBV
[27] = target: T1, ATP-dependent translocase ABCB1; assay: Inhibition of P-gp-mediated rhodamine-123 efflux in human KVB cells assessed as increase in intracellular Rhodamine-123 accumulation at 10 uM incubated for 30 mins by flow cytometry; format: cell-based; conditions: kbv, 0.5 h
[28] = Reversal fold, ratio of PTX IC50 to PTX IC50 in presence of test compound for reversal of multi-drug resistance in human KVB cells at 5 uM measured after 72 hrs by MTT; format: functional, KBV
[29] = Cytotoxicity against human KBV cells assessed as cell survival at 5 uM measured after 72 hrs incubation by MTT assay relative to control; format: functional; conditions: read-out: Activity

In the case of CC(C)(C)OC(=O)N1CC(CC(=O)N[C@H]2CC[C@]3(C)[C@H]4C[C@@H](O)[C@@H]5[C@@H]([C@]6(C)CC[C@H](C(C)(C)O)O6)CC[C@@]5(C)[C@]4(C)CC[C@H]3C2(C)C)C1, the IC50 at 72 h [1] is reported as over 100 µM, the Ratio [2] is reported as 211.8 and the Activity (KBV [3]) is reported as “Active”. The Activity (KBV [4]) was “Dose-Dependent Effect”, the “Ratio IC50” value [5] was 1 and the IC50 at 72 h ([6]; read-out: IC50) was 63.1 µM. The Activity [7] was “Active”, the “Ratio IC50” value [8] was 1.1 and the “Ratio IC50” value [9] was 1. For the same compound, the viability at 10 µM [10] was 92%, the Activity [11] was “Not Active” and the Activity [12] was “Not Active”. For the same compound, the IC50 [13] was 44.9 µM, the “inhibition (INH)” value [14] was “Dose-Dependent Effect” and the “Ratio IC50” value [15] was 1. The Activity (KBV [16]) was “inactive”, the “inhibition (INH)” value [17] was “Dose-Dependent Effect” and the Activity [18] was 23%. The “Ratio IC50” value [19] was 14.8, the Activity [20] was 36% and the Activity (KBV [21]) was “inactive”. The Activity [22] was “Active” and the “Ratio IC50” value [23] was 7.9.
With CC(=O)O[C@H]1C(=O)[C@@]2(C)[C@H]([C@H](OC(=O)c3ccccc3)[C@]3(O)C[C@H](OC(=O)[C@H](O)[C@@H](NC(=O)c4ccccc4)c4ccccc4)C(C)=C1C3(C)C)[C@]1(OC(C)=O)CO[C@@H]1C[C@@H]2O the Activity (KBV [24]) was “inactive” and the Activity (KBV [25]) was “inactive”.
With COc1ccc(CCN(C)CCCC(C#N)(c2ccc(OC)c(OC)c2)C(C)C)cc1OC (stereo unspecified) the IC50 at 72 h [1] was over 100 µM, the IC50 at 72 h [6] was 53.4 µM and the Activity [7] was “Active”.
With COc1ccc2c3c([nH]c2c1)[C@H](CC(C)C)N1C(=O)[C@H](CCC(=O)OC(C)(C)C)NC(=O)[C@@H]1C3 the “Ratio IC50” value [8] was 3.2.
In the case of CN(C)C(=O)CCSC(SCCC(=O)O)c1cccc(/C=C/c2ccc3ccc(Cl)cc3n2)c1 (stereo unspecified) [MK-571], the “Ratio IC50” value [26] is reported as 6.4.
In the case of O=c1[nH]cc(F)c(=O)[nH]1 [FLUOROURACIL], the IC50 [13] is reported as 829 µM.
For COc1cccc2c1C(=O)c1c(O)c3c(c(O)c1C2=O)C[C@@](O)(C(=O)CO)C[C@@H]3O[C@H]1C[C@H](N)[C@H](O)[C@H](C)O1 [DOXORUBICIN HYDROCHLORIDE], the IC50 [13] was 8.19 µM.
With COc1cc2c(cc1OC)CN(CCc1ccc(NC(=O)c3cc(OC)c(OC)cc3NC(=O)c3cnc4ccccc4c3)cc1)CC2 the IC50 at 72 h [1] was 40.3 µM, the Ratio [2] was 206.6 and the “inhibition (INH)” value [27] was “Active”. For the same compound, the IC50 at 72 h ([6]; read-out: IC50) was 8.03 µM and the IC50 [13] was 8.66 µM.
For CC(C)(O)[C@H]1CC[C@@](C)([C@H]2CC[C@]3(C)[C@@H]2[C@H](O)C[C@@H]2[C@@]4(C)CC[C@H](NC(=O)[C@@H]5CCCCN5)C(C)(C)[C@@H]4CC[C@]23C)O1, the “Ratio IC50” value [28] was 116.7, the Activity [7] was “Active” and the viability at 5 µM [29] was 96%. The Activity [20] was 41%.
